What was measured:
Rattus norvegicus [1] = assay: Dose producing 30% decrease of blood pressure in anesthetized rats (SHR); assay type: functional
Rattus norvegicus [2] = assay: Dose producing 10% decrease of heart rate in anesthetized rats (SHR); assay type: functional
Adenosine receptor A1 [3] = target: T1, Adenosine receptor A1 (Rattus norvegicus, UniProt P25099)
T1 sequence (P25099 whole entry): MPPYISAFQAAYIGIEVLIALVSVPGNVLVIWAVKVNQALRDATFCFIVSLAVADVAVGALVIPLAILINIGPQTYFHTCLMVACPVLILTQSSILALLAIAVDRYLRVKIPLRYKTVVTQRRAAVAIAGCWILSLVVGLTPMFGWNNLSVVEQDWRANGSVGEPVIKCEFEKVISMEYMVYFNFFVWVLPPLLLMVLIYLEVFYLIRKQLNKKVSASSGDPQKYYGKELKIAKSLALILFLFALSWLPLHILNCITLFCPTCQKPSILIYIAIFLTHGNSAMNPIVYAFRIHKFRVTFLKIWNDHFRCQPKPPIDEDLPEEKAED
Description: Binding affinity against adenosine A1 receptor in rat brain membranes using [3H]CHA as radioligand

Adenosine A2 receptor [4] = target: T2, Adenosine A2 receptor (Rattus norvegicus, UniProt P29276+P30543)
Description: Binding affinity against adenosine A2 receptor in rat striatal membranes using [3H]NECA as radioligand

Adenosine receptor A1 [5] = target: T1, Adenosine receptor A1; assay: Binding affinity against adenosine A1 receptor in rat brain membranes using [3H]-CHA; assay type: cell membranes
Adenosine A2 receptor [6] = target: T2, Adenosine A2 receptor; assay: Binding affinity against adenosine A2 receptor in rat striatal membranes using [3H]NECA; assay type: cell membranes, Striatum, Membrane

| SMILES | Ki (Adenosine receptor A1 [3]) | Ki (Adenosine A2 receptor [4]) | Ki (Adenosine receptor A1 [5]) | Ki (Adenosine A2 receptor [6]) | ED30 (Rattus norvegicus [1]) | ED10 (Rattus norvegicus [2]) |
| --- | --- | --- | --- | --- | --- | --- |
| CCCCCCC#Cc1nc(N)c2[nH]cnc2n1 | > 567 nM | > 567 nM | – | – | > 100 µg/kg | > 100 µg/kg |
| CCCOCCC#Cc1nc(N)c2ncn(C3O[C@H](CO)[C@@H](O)[C@H]3O)c2n1 (some centres not stated) | 128 nM | 10.2 nM | – | – | 1.1 µg/kg | 79.9 µg/kg |
| CCCCOCC#Cc1nc(N)c2ncn([C@@H]3O[C@H](CO)[C@@H](O)[C@H]3O)c2n1 | 18.5 nM | 10.6 nM | – | – | 1.06 µg/kg | 9.59 µg/kg |
| CCNC(=O)[C@H]1O[C@@H](n2cnc3c(N)nc(NCCc4ccc(CCC(=O)O)cc4)nc32)[C@H](O)[C@@H]1O [CGS-21680] | – | – | – | – | 0.83 µg/kg | > 100 µg/kg |
| COc1cc(OC)cc(C(CNc2ncnc3c2ncn3[C@@H]2O[C@H](CO)[C@@H](O)[C@H]2O)c2ccccc2C)c1 (some centres not stated) | 103 nM | – | – | – | 12.1 µg/kg | > 100 µg/kg |
| CCCCCCC#Cc1nc(N)c2ncn([C@@H]3O[C@H](CO)[C@@H](O)[C@H]3O)c2n1 | 202 nM | 12.1 nM | – | – | 0.34 µg/kg | > 100 µg/kg |
| CCCCCC/C=C\c1nc(N)c2ncn(C3O[C@H](CO)[C@@H](O)[C@H]3O)c2n1 (some centres not stated) | > 567 nM | 150 nM | – | – | 5 µg/kg | > 100 µg/kg |
| CCOCCCC#Cc1nc(N)c2ncn([C@@H]3O[C@H](CO)[C@@H](O)[C@H]3O)c2n1 | 244 nM | 12.8 nM | – | – | 1.42 µg/kg | > 100 µg/kg |
| CCCCCCCC#Cc1nc(N)c2ncn([C@@H]3O[C@H](CO)[C@@H](O)[C@H]3O)c2n1 | 257 nM | 33.7 nM | – | – | 0.53 µg/kg | > 100 µg/kg |
| CCCCCCC#Cc1nc2c(N)ncnc2n1C1O[C@H](CO)[C@@H](O)[C@H]1O (some centres not stated) | > 567 nM | > 567 nM | – | – | > 100 µg/kg | > 100 µg/kg |
| CCCCCCCCc1nc(N)c2ncn(C3O[C@H](CO)[C@@H](O)[C@H]3O)c2n1 (some centres not stated) | > 567 nM | > 567 nM | – | – | > 100 µg/kg | > 100 µg/kg |
| CCCCCCCCCCC#Cc1nc(N)c2ncn(C3O[C@H](CO)[C@@H](O)[C@H]3O)c2n1 (some centres not stated) | – | – | 267 nM | 44.6 nM | 2.05 µg/kg | > 100 µg/kg |
| OC[C@H]1O[C@@H](n2cnc3c(NC4CCCC4)ncnc32)[C@H](O)[C@@H]1O [N6-CYCLOPENTYLADENOSINE] | – | 421 nM | – | – | 0.5 µg/kg | 0.14 µg/kg |
| CCCCCCCCOCCC#Cc1nc(N)c2ncn([C@@H]3O[C@H](CO)[C@@H](O)[C@H]3O)c2n1 | 1500 nM | 307 nM | – | – | 9.16 µg/kg | > 100 µg/kg |
| CCCCCCC#Cc1nc(O)c2ncn(C3O[C@H](CO)[C@@H](O)[C@H]3O)c2n1 (some centres not stated) | > 567 nM | > 567 nM | – | – | > 100 µg/kg | > 100 µg/kg |
| CCCCCCCCC#Cc1nc(N)c2ncn([C@@H]3O[C@H](CO)[C@@H](O)[C@H]3O)c2n1 | 232 nM | 32.8 nM | – | – | 0.46 µg/kg | > 100 µg/kg |
| CCNC(=O)[C@H]1O[C@@H](n2cnc3c(N)ncnc32)[C@H](O)[C@@H]1O [NECA] | – | – | – | – | 0.19 µg/kg | 0.35 µg/kg |
| CCCCCCC#Cc1ncnc2c1ncn2C1O[C@H](CO)[C@@H](O)[C@H]1O (some centres not stated) | > 567 nM | > 567 nM | – | – | > 100 µg/kg | > 100 µg/kg |
| Nc1nc(Nc2ccccc2)nc2c1ncn2[C@@H]1O[C@H](CO)[C@@H](O)[C@H]1O | – | 107 nM | – | – | 5.82 µg/kg | > 100 µg/kg |

The next lines start with results.

| Ki (Adenosine receptor A1 [3]) | Ki (Adenosine A2 receptor [4]) | Ki (Adenosine receptor A1 [5]) | Ki (Adenosine A2 receptor [6]) | SMILES | ED30 (Rattus norvegicus [1]) | ED10 (Rattus norvegicus [2]) |
| --- | --- | --- | --- | --- | --- | --- |
| 69.8 nM | 630 nM | – | – | C[Si](C)(C)C#Cc1nc(N)c2ncn([C@@H]3O[C@H](CO)[C@@H](O)[C@H]3O)c2n1 | 1.15 µg/kg | > 100 µg/kg |
| > 567 nM | > 567 nM | – | – | CCc1nc(N)c2ncn(C3O[C@H](CO)[C@@H](O)[C@H]3O)c2n1 (some centres not stated) | > 100 µg/kg | > 100 µg/kg |
| 154 nM | 7.5 nM | – | – | CCCC#Cc1nc(N)c2ncn([C@@H]3O[C@H](CO)[C@@H](O)[C@H]3O)c2n1 | 0.18 µg/kg | 41.5 µg/kg |
| > 567 nM | > 567 nM | – | – | CC(=O)c1nc(N)c2ncn(C3O[C@H](CO)[C@@H](O)[C@H]3O)c2n1 (some centres not stated) | 46.7 µg/kg | 50.3 µg/kg |
| 186 nM | 21.2 nM | – | – | CCC#Cc1nc(N)c2ncn([C@@H]3O[C@H](CO)[C@@H](O)[C@H]3O)c2n1 | 0.48 µg/kg | 18.4 µg/kg |
| 10.1 nM | 20.5 nM | – | – | Nc1nc(C#CCO)nc2c1ncn2[C@@H]1O[C@H](CO)[C@@H](O)[C@H]1O | 0.95 µg/kg | 1.19 µg/kg |
| 170 nM | 5.4 nM | – | – | CCCCCC#Cc1nc(N)c2ncn([C@@H]3O[C@H](CO)[C@@H](O)[C@H]3O)c2n1 | 0.14 µg/kg | > 100 µg/kg |
| 81.4 nM | 40.1 nM | – | – | Nc1nc(C#CCCO)nc2c1ncn2[C@@H]1O[C@H](CO)[C@@H](O)[C@H]1O | 2.53 µg/kg | 15.3 µg/kg |
| 38.1 nM | 88.1 nM | – | – | COCC#Cc1nc(N)c2ncn([C@@H]3O[C@H](CO)[C@@H](O)[C@H]3O)c2n1 | 23.8 µg/kg | 44.2 µg/kg |
| 272 nM | 37.6 nM | – | – | C#Cc1nc(N)c2ncn(C3O[C@H](CO)[C@@H](O)[C@H]3O)c2n1 (some centres not stated) | 5.91 µg/kg | 5.76 µg/kg |
| 126 nM | – | – | – | CCCCC#Cc1nc(N)c2ncn([C@@H]3O[C@H](CO)[C@@H](O)[C@H]3O)c2n1 | 0.11 µg/kg | 66.9 µg/kg |

From ChEMBL document CHEMBL1126140, “Nucleosides and nucleotides. 103. 2-Alkynyladenosines: a novel class of selective adenosine A2 receptor agonists with potent antihypertensive effects” (J Med Chem, 1992)
